Results from ChEMBL document CHEMBL5233229, “Recent advances in the development of ubiquitin-specific-processing protease 7 (USP7) inhibitors” (Eur J Med Chem, 2020).
Where “and” joins values, the source holds several entries; their conditions need not be identical. Equal values may be shown once.

These compounds were tested against T1, Ubiquitin carboxyl-terminal hydrolase 7 (Homo sapiens, UniProt Q93009) (assay: Inhibition of human USP7 using ubiquitin-Rh110 as substrate incubated for 23 to 45 mins by fluorescence based assay).
T1 sequence (Q93009 whole entry): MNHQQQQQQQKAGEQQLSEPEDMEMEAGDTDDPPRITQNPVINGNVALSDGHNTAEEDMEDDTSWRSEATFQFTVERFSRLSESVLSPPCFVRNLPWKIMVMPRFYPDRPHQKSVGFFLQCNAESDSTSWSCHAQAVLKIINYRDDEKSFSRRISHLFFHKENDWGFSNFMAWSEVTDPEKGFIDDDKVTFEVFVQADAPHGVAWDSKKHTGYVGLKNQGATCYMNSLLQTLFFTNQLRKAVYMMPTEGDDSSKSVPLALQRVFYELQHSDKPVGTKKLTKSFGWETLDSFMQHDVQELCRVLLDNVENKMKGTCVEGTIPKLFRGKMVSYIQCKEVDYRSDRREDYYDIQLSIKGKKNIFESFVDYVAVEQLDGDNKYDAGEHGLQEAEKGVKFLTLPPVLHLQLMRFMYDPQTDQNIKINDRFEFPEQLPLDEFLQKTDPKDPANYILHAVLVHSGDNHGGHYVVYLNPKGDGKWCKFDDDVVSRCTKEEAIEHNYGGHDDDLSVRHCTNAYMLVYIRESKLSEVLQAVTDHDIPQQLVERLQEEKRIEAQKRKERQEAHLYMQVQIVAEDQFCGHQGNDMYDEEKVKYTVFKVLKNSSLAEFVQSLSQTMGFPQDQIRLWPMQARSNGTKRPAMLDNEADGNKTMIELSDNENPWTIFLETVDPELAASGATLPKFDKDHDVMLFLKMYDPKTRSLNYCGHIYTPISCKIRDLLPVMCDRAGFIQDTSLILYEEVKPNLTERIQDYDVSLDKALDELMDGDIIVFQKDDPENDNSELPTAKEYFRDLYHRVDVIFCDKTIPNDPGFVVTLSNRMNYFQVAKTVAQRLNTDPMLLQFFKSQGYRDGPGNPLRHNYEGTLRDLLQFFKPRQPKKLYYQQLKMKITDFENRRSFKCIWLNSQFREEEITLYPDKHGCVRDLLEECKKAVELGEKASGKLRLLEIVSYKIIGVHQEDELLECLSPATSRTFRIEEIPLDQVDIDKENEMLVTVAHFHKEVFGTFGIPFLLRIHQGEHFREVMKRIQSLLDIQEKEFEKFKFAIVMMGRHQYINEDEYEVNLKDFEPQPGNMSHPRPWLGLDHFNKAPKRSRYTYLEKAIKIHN

IC50, 1000 nM:
Cc1cc2c(=O)n(CC3(O)CCN(C(=O)C(C)Cc4ccccc4)CC3)cnn2c1 (stereo not given)
O=C(c1ccc(F)cc1)N1CCC(O)(Cn2cnn3c(-c4ccc(F)cc4)ncc3c2=O)CC1
O=C(c1ccc(Sc2ccccc2)cc1)N1CCC(O)(Cn2cnn3cccc3c2=O)CC1
O=C(c1cccc(-c2cccc(F)c2)c1)N1CCC(O)(Cn2cnn3cccc3c2=O)CC1
O=C(c1cccc(-c2ccc(Cl)cc2)c1)N1CCC(O)(Cn2cnn3cccc3c2=O)CC1
O=C(c1ccc(Cn2nnc3ccccc32)cc1)N1CCC(O)(Cn2cnn3cccc3c2=O)CC1
O=C(c1ccc(-c2cccc(C(=O)N3CCC(O)(Cn4cnn5cccc5c4=O)CC3)c2)cc1)N1CCCC1
O=C(c1cnc(C2CC2)o1)N1CCC(O)(Cn2cnn3c(-c4ccc(F)cc4)ncc3c2=O)CC1
O=C(c1ccc(-n2cccn2)cc1)N1CCC(O)(Cn2cnn3c(-c4ccc(F)cc4)ncc3c2=O)CC1
O=C(c1ccc(Cn2cnc3ccccc32)cc1)N1CCC(O)(Cn2cnn3cccc3c2=O)CC1
CC(C)(C)C(Cc1ccccc1)C(=O)N1CCC(O)(Cn2cnn3cccc3c2=O)CC1 (stereo not given)
CCC(Cc1ccccc1)C(=O)N1CCC(O)(Cn2cnn3cccc3c2=O)CC1 (stereo not given)
Cc1cc(C(F)(F)F)nn1Cc1ccc(C(=O)N2CCC(O)(Cn3cnn4cccc4c3=O)CC2)cc1
O=C(c1cccc(-c2ccc3ncccc3c2)c1)N1CCC(O)(Cn2cnn3cccc3c2=O)CC1

IC50, < 1000 nM:
Cn1c(-c2cccc(C(=O)N3CCC(O)(Cn4cnn5cccc5c4=O)CC3)c2)cc2ccccc21
CC(=O)Nc1cc2c(=O)n(CC3(O)CCN(C(=O)C[C@@H](C)c4ccccc4)CC3)cnn2c1
Cc1ccc2c(=O)n(CC3(O)CCN(C(=O)CC(C)c4ccccc4)CC3)cnn12 (stereo not given)
CNC(=O)Nc1cc2c(=O)n(CC3(O)CCN(C(=O)C[C@@H](C)c4ccccc4)CC3)cnn2c1

The compounds below were run against T1, Ubiquitin carboxyl-terminal hydrolase 7 (assay: Inhibition of human USP7 using Ub-AMC as substrate).

IC50, 270 nM:
CC(C)C(CC(=O)N1CCC(O)(Cn2cnc3cc(NC(=O)CCN4CCN(C)CC4)ccc3c2=O)CC1)c1ccccc1 (stereo not given)

IC50, 12000 nM:
O=C(CCc1ccccc1)N1CCC(O)(Cn2cnc3cc(Cl)ccc3c2=O)CC1

IC50, 420 nM:
C[C@H](CC(=O)N1CCC(O)(Cn2cnc3cc(Cl)ccc3c2=O)CC1)c1ccccc1

IC50, 240 nM:
CC(CC(=O)N1CCC(O)(Cn2cnc3cc(NC(=O)CCn4ccnc4)ccc3c2=O)CC1)c1ccccc1 (stereo not given)

IC50, 7180 nM and 11000 nM:
C[C@@H](CC(=O)N1CCC(O)(Cn2cnc3cc(NC(=O)CCN4CCN(C)CC4)ccc3c2=O)CC1)c1ccccc1

IC50, 350 nM:
CC(CC(=O)N1CCC(O)(Cn2cnc3cc(NC(=O)CCN4CCCCC4)ccc3c2=O)CC1)c1ccccc1 (stereo not given)

IC50, 190 nM:
C[C@H](CC(=O)N1CCC(O)(Cn2cnc3cc(NC(=O)CCN4CCN(C)CC4)ccc3c2=O)CC1)c1ccccc1

IC50, 1300 nM:
CC(CC(=O)N1CCC(O)(Cn2cnc3cc(Cl)ccc3c2=O)CC1)c1ccccc1 (stereo not given)

IC50, 480 nM:
C[C@H](CC(=O)N1CCC(O)(Cn2cnc3cc(NC(=O)CCN4CCOCC4)ccc3c2=O)CC1)c1ccccc1

IC50, 40000 nM:
C[C@@H](CC(=O)N1CCC(O)(Cn2cnc3cc(Cl)ccc3c2=O)CC1)c1ccccc1

IC50, 560 nM:
CC(CC(=O)N1CCC(O)(Cn2cnc3cc(NC(=O)CCN4CCN(C)CC4)ccc3c2=O)CC1)c1ccccc1 (stereo not given)

IC50, > 100000 nM:
O=C(Cc1ccccc1)N1CCC(O)(Cn2cnc3cc(Cl)ccc3c2=O)CC1
N#CC1(Cn2cnc3cc(Cl)ccc3c2=O)CCN(C(=O)CCc2ccccc2)CC1
CC(=O)N1CCC(O)(Cn2cnc3cc(Cl)ccc3c2=O)CC1
O=C(CCc1ccccc1)N1CCC(O)(Cn2cnc3cc(Cl)ccc3c2=O)C1 (stereo not given)
O=c1c2ccc(Cl)cc2ncn1CC1(O)CCN(CCCc2ccccc2)CC1
O=C(CCc1ccccc1)N1CCC(Cn2cnc3cc(Cl)ccc3c2=O)CC1

IC50, 130 nM:
C[C@H](CC(=O)N1CCC(O)(Cn2cnc3cc(NC(=O)CCN(C)C)ccc3c2=O)CC1)c1ccccc1

What follows are compounds tested against T1, Ubiquitin carboxyl-terminal hydrolase 7 (assay: Inhibition of human USP7 using Ub-EKL as substrate).

EC50, > 10000 nM:
O=C(Nc1ccc2c(c1)S(=O)(=O)C=C2)c1nnc(Sc2c(Cl)cccc2Cl)s1
CN(C)CCCOc1ccc(NC(=O)c2nnc(Sc3c(Cl)cncc3Cl)o2)cc1
O=C(Nc1ccc2c(c1)S(=O)(=O)C=C2)c1cnc(Sc2c(Cl)cncc2Cl)o1
CN(C)CCCOc1ccc(NC(=O)c2cnc(Sc3c(Cl)cncc3Cl)s2)cc1

EC50, 1000 nM:
O=C(Nc1cnc2ccccc2c1)c1nnc(Sc2c(Cl)cncc2Cl)s1
CC(=O)c1cccc(NC(=O)c2nnc(Sc3c(Cl)cncc3Cl)s2)c1
O=C(Nc1ccc2c(c1)C(=O)CC2)c1nnc(Sc2c(Cl)cncc2Cl)s1
Cc1nc2ccc(NC(=O)c3nnc(Sc4c(Cl)cncc4Cl)s3)cc2s1
CN(C(=O)c1nnc(Sc2c(Cl)cncc2Cl)s1)c1ccc2c(c1)S(=O)(=O)C=C2
CC1CS(=O)(=O)c2cc(NC(=O)c3nnc(Sc4c(Cl)cncc4Cl)s3)ccc21 (stereo not given)
CS(=O)(=O)c1cccc(NC(=O)c2nnc(Sc3c(Cl)cncc3Cl)s2)c1

EC50, 5000 nM:
O=C(Nc1ccc2c(c1)S(=O)(=O)C=C2)c1nnc(Sc2c(F)cncc2Cl)s1
O=C(Nc1ccc2c(c1)S(=O)(=O)C=C2)c1cnc(Sc2ccncc2Cl)s1
O=C(Nc1ccc2c(c1)S(=O)(=O)C=C2)c1sc(Sc2c(Cl)cncc2Cl)nc1C(F)(F)F

EC50, 2000 nM:
CC1CS(=O)(=O)c2cc(NC(=O)c3cnc(Sc4c(Cl)cncc4Cl)s3)ccc21 (stereo not given)
Nc1ncc(Cl)c(Sc2nnc(C(=O)Nc3ccc4c(c3)S(=O)(=O)C=C4)s2)c1Cl
O=C(Nc1ccc2c(c1)S(=O)(=O)C=C2)c1cnc(Sc2c(Cl)cncc2Cl)s1
Cc1c(NC(=O)c2nnc(Sc3c(Cl)cncc3Cl)s2)ccc2c1S(=O)(=O)CC2
COCCOCCN(C(=O)c1nnc(Sc2c(Cl)cncc2Cl)s1)c1ccc2c(c1)S(=O)(=O)CC2

EC50, < 1000 nM:
O=C(Nc1cccc(Cl)n1)c1nnc(Sc2c(Cl)cncc2Cl)s1
O=C(Nc1ccc2c(c1)S(=O)(=O)C=C2)c1nnc(Sc2c(Cl)cncc2Cl)s1
CN(C)CC(O)COc1ccc(NC(=O)c2nnc(Sc3c(Cl)cncc3Cl)s2)cc1 (stereo not given)
O=C(Nc1cnccn1)c1nnc(Sc2c(Cl)cncc2Cl)s1
CN(C)CCNC1CS(=O)(=O)c2cc(NC(=O)c3nnc(Sc4c(Cl)cncc4Cl)s3)ccc21 (stereo not given)
O=C(Nc1ccc(NCCCN2CCOCC2)cc1)c1nnc(Sc2c(Cl)cncc2Cl)s1
CN(C)CCCOc1ccc(NC(=O)c2nnc(Sc3c(Cl)cncc3Cl)s2)cc1
O=C(Nc1ccc2c(c1)S(=O)(=O)CC2)c1nnc(Sc2c(Cl)cncc2Cl)s1
CN(C)CCCNc1ccc(NC(=O)c2nnc(Sc3c(Cl)cncc3Cl)s2)cc1
O=C(Nc1ccc2c(c1)S(=O)(=O)C=C2)c1nnc(Sc2c(Cl)cncc2Cl)o1
O=C(Nc1ccc2c(c1)S(=O)(=O)C=C2)c1nnc(Sc2c(Cl)cncc2Br)s1
CN(C)CCCOc1ccc(NC(=O)c2nnc(Sc3c(Cl)cncc3Br)s2)cc1
CN(C)CCOc1cccc(NC(=O)c2nnc(Sc3c(Cl)cncc3Cl)s2)c1
CNS(=O)(=O)c1ccc(NC(=O)c2nnc(Sc3c(Cl)cncc3Cl)s2)cc1
O=C(Nc1ccc2c(c1)S(=O)(=O)CC2NCCN1CCOCC1)c1nnc(Sc2c(Cl)cncc2Cl)s1 (stereo not given)
CN(C)CCCNC1CS(=O)(=O)c2cc(NC(=O)c3cnc(Sc4c(Cl)cncc4Cl)s3)ccc21 (stereo not given)

What follows are compounds tested against T2, Ubiquitin carboxyl-terminal hydrolase 47 (Homo sapiens, UniProt Q96K76) (assay: Inhibition of human USP47 using Ub-EKL as substrate by SDS-PAGE assay).
T2 sequence (Q96K76 whole entry): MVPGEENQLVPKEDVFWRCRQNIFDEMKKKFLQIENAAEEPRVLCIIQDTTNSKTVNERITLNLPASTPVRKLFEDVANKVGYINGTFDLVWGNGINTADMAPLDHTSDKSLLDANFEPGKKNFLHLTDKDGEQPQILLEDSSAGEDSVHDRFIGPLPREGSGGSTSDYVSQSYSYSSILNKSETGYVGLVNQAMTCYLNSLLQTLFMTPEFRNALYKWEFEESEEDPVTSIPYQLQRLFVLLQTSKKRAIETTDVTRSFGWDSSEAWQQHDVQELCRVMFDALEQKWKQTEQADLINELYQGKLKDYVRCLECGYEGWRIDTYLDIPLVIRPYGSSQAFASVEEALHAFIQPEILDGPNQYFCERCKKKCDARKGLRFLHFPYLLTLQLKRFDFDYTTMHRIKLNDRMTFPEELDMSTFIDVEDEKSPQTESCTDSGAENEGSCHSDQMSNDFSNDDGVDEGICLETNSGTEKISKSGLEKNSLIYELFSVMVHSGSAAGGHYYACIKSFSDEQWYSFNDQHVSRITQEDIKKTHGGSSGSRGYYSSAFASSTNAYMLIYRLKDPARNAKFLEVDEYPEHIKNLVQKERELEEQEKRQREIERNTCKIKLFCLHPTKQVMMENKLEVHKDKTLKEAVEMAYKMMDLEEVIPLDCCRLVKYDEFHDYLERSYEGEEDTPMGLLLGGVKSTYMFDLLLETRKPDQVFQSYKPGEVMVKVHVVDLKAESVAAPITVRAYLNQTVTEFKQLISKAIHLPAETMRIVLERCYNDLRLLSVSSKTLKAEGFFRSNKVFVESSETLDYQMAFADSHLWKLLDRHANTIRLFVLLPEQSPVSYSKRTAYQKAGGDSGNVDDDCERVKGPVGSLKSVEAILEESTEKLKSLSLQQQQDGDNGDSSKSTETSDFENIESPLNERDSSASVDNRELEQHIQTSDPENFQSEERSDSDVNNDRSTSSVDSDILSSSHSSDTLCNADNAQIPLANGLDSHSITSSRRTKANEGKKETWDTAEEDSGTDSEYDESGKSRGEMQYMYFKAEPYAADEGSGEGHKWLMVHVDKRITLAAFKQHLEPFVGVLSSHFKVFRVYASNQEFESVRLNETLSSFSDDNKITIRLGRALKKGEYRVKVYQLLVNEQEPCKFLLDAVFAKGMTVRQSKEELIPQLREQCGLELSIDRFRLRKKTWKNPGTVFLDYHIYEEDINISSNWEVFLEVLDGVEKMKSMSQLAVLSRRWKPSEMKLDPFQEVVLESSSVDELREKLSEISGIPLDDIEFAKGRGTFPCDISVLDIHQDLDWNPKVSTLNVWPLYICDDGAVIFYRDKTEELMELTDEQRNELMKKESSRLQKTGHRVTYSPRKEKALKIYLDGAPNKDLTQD

EC50, 1400 nM:
CS(=O)(=O)c1cccc(NC(=O)c2cc([N+](=O)[O-])c(Sc3c(Cl)cncc3Cl)s2)c1

EC50, 1590 nM:
O=C(Nc1cccc(S(=O)(=O)C2CC2)c1)c1cc([N+](=O)[O-])c(Sc2c(Cl)cncc2Cl)s1

Each compound was assayed against T1, Ubiquitin carboxyl-terminal hydrolase 7 (assay: Inhibition of human USP7 using Ub-EKL as substrate by SDS-PAGE assay).

EC50, 560 nM:
O=C(Nc1cccc(S(=O)(=O)C2CC2)c1)c1cc([N+](=O)[O-])c(Sc2c(Cl)cncc2Cl)s1

EC50, 510 nM:
CS(=O)(=O)c1cccc(NC(=O)c2cc([N+](=O)[O-])c(Sc3c(Cl)cncc3Cl)s2)c1
